Assay results from publication PMC6933707, “Palmitoylethanolamide counteracts substance P-induced mast cell activation in vitro by stimulating diacylglycerol lipase activity” (Journal of Neuroinflammation, 2019).

Key:
human CB2 receptor = human CB2 receptor (Homo sapiens, UniProt P34972); test: cAMP Hunter functional activity assay at the CB2 receptors; format: cell-based; set-up: host or cells: CHO-K1; conditions: 2-AG alone, CHO-K1 cells overexpressing human CB2; read-out: IC50, reduction of NKH-477-induced cAMP levels
Description: The cAMP Hunter™ eXpress G protein-coupled receptor (GPCR) assay was performed in Chinese Hamster Ovary (CHO)-Kl cells overexpressing the human CB2 receptor. Gi-coupled cAMP modulation was measured following the manufacturer’s protocol (DiscoverX, Fremont, CA). CHO-K1 cells overexpressing the human CB2 receptor were plated into a 96-well plate (3× 10^4 cells/well) and incubated overnight at 37 °C in 5% CO2 atmosphere. The media were aspirated and replaced with 30 μl of assay buffer. Cells were incubated 30 min at 37 °C with 15 μl of 3× concentration-response solutions of 2-AG (0.01–50 μM), or PEA (10 μM), prepared in presence of cell assay buffer containing a 3× of 25 μM NKH-477 solution (a water-soluble analog of Forskolin) to stimulate adenylate cyclase and enhance basal cAMP levels. We also investigated the effect of PEA on 2-AG receptor activation by co-incubation. Therefore, cells were also incubated 30 min at 37 °C with 2-AG and PEA (10 μM) in the presence of NKH-477 to stimulate adenylate cyclase and enhance cAMP levels. […] Relative luminescence units (RLU) were measured by using a GloMax Multi Detection System (Promega Italia). […] The percentage of response was calculated by using the following formula: % RESPONSE = 100% × (1-(RLU of test compound-RLU of NKH-477 positive control)/(RLU of vehicle-RLU of NKH-477 positive control).

RBL-2H3 cells [1] = test: Histamine release assay (ELISA); format: cell-based, rat
Description: (§1) RBL-2H3 cells were plated into 24-well culture dishes at a cell density of 2 × 10^5 cells per well, or into 6-well culture dishes at a cell density of 9 × 10^5 cells per well, for 1 day at 37 °C in 5% CO2 atmosphere. After 1 day, RBL-2H3 cells were stimulated with SP (10 μM) or vehicle (water) and incubated for 15 min at 37 °C in 5% CO2 atmosphere.
SP-stimulated RBL-2H3 cells (2 × 10^5 cells/well) were treated with PEA (10 μM) or vehicle (methanol) for 15 min at 37 °C in 5% CO2 atmosphere. SP-stimulated RBL-2H3 cells were also treated with a CB2 antagonist, AM630 (0.1 μM), in the presence and absence of PEA (10 μM), or JWH133 (0.1 μM) (a CB2 synthetic agonist), and incubated for the indicated time. SP-stimulated RBL-2H3 cells were also treated with 2-AG (0.1 and 1 μM), or co-treated with PEA (0.1 μM) and 2-AG (0.1 μM), and incubated for the indicated time. SP-stimulated RBL-2H3 cells were also co-treated with PEA (10 μM) and OMDM188 (10 μM) (a DAGL inhibitor), and incubated for the indicated time. After 15 min, the supernatants were collected and the amounts of secreted histamine were measured by using a histamine ELISA kit according to the manufacturer’s instructions (Abnova) and by using a reader GENios Pro (Tecan). Data were expressed as nanograms per milliliter of histamine.

RBL-2H3 cells [2] = test: Toluidine blue staining, percentage of degranulation; format: cell-based, rat
Description: SP-stimulated RBL-2H3 cells [plated on poly-L-lysine (33 μg/ml) coated slides (Deckglaser, 21 × 26 mm) into 6-well culture dishes at a cell density of 9 × 10^5 cells per well] were treated and incubated as described above for histamine release assay. After 15 min, the cells were fixed with paraformaldehyde at 4% for 20 min and incubated for 3 min with toluidine blue at 0.01% in 3% acetic acid. Subsequently, a 5 min wash in distilled water and dehydration in increasing alcohols (90%, 100%) were performed. Cells were then clarified by treatment with Xylol for 5 min and finally dried slides were mounted with the DPX histogram upright. The cells were observed using a Leica DMI6000 digital microscope, acquired using the Leica DFC 340FX digital camera connected to the microscope and analyzed using the LAS AF 2.2.0 software. Degranulated RBL-2H3 cells were counted and the percentage of degranulation (based on the number of colorable cells) was calculated.

RBL-2H3 cells [3] = test: as above; format: cell-based, rat; conditions: compound alone 0.1 μM, in the absence of SP (data not shown)
RBL-2H3 cells [4] = test: LC-APCI-MS measurement of endogenous AEA, 2-AG and PEA levels; format: cell-based, rat; conditions: for decrease of endogenous levels of 2-AG: OMDM188 10 μM in the presence of PEA 10 μM
Description: RBL-2H3 cells (9 × 10^5 cells/well) were stimulated with SP (10 μM) and treated with PEA (10 μM) in the presence and absence of OMDM188 (10 μM), for 15 min at 37 °C in 5% CO2 atmosphere. After 15 min, cells and supernatants were collected and homogenized in a solution of CHCl3/CH3OH/Tris-HCl 50 mM pH 7.4 (2:1:1, v/v) containing 10 pmol of [^2H]8-AEA, [^2H]5-2-AG and [^2H]4-PEA as internal standards. The lipid-containing organic phase was dried down, weighed and pre-purified by open-bed chromatography on silica gel. Fractions obtained by eluting the column with a solution of CHCl3/CH3OH (90:10 by vol.) were analyzed by Liquid Chromatography-Atmospheric Pressure Chemical Ionization-Mass Spectrometry (LC-APCI-MS) using a Shimadzu (Shimadzu, Kyoto, Japan) HPLC apparatus (LC-10ADVP) coupled to a Shimadzu (LCMS-2020) quadrupole MS via a Shimadzu APCI interface. LC-APCI-MS analyses of 2-AG and PEA were carried out in the selected ion monitoring mode, using m/z values of 356 and 348 (molecular ions + 1 for deuterated and undeuterated AEA), 384.35 and 379.35 (molecular ions + 1 for deuterated and undeuterated 2-AG), and 304 and 300 (molecular ions + 1 for deuterated and undeuterated PEA). AEA, 2-AG and PEA levels were calculated on the basis of their area ratio with the internal deuterated standard signal areas, and their amounts (pmol) were normalized per mg of lipid extract.

RBL-2H3 cells [5] = test: β-Hexosaminidase release assay; format: cell-based, rat; conditions: substance alone 10 μM, 15 min, vs vehicle-treated cells
Description: as §1
SP-stimulated RBL-2H3 cells (2 × 10^5 cells/well) were treated with PEA (0.1, 0.5, 1, and 10 μM) or vehicle (methanol, max 0.1%) for 15 min at 37 °C in 5% CO2 atmosphere. After 15 min, the supernatants (15 μl) were transferred to 96-well plates and incubated with 60 μl of substrate (1 mM p-nitrophenyl-N-acetyl-β-D-glucosaminide in citrate 0.05 M, pH 4.5) for 1 h at 37 °C. To determine the total amount of released β-hexosaminidase, the cells were lysed with 0.1% Triton X-100 and incubated with substrate using the same procedure as for the determination of the activity in the supernatants. The reaction was stopped by adding 150 μl of 0.1 M sodium bicarbonate buffer (pH 10.0), and the reaction product was monitored by measuring the optical density (OD) at 405 nm by using a reader GENios Pro (Tecan). The results were expressed as % of the total β-hexosaminidase content of the cells determined by cell lysis with 0.1% Triton X-100, and calculated by using the following formula: % degranulation = [ODsupernatant/(ODsupernatant + ODtriton x−100)] × 100.

RBL-2H3 cells [6] = test: Quantitative real-time PCR of PEA/2-AG receptors and metabolic enzymes; format: cell-based, rat; conditions: cells stimulated 15 min with SP 10 μM or PEA 10 μM or both, vs unstimulated
Description: The mRNA expression of PEA target genes (Cnr1, Cnr2, Trpv1, Ppara, and Gpr55), as well as PEA and 2-AG biosynthetic (N-acyl phosphatidylethanolamine-specific phospholipase D, Napepld, Dagla and Daglb) and catabolic enzyme genes (fatty acid amide hydrolase, Faah; N-acylethanolamine-hydrolyzing acid amidase, Naaa; and monoacylglycerol lipase, Mgl), was studied by comparison of transcriptional expression in unstimulated RBL-2H3 cells (plated on 100 mm diameter Petri dishes) vs. the expression of these targets and enzymes in RBL-2H3 cells treated with PEA (10 μM), or stimulated with SP (10 μM) in the presence and absence of PEA (10 μM), for 15 min at 37 °C in 5% CO2 atmosphere. Total RNA was purified, quantified and reverse transcribed as previously reported. For each target, all mRNA sequences were aligned and common primers were designed (Table 1). Quantitative real-time PCR was performed by an iCycler-iQ5 in a 20 μl reaction mixture using 20 ng of cDNA. Assays were performed in quadruplicate (maximum ΔCt of replicate samples < 0.5). Optimized primers for SYBR-green analysis and optimum annealing temperatures were designed by the Allele-Id software version 7.0 (Biosoft International) and were synthesized (HPLC-purification grade) by MWG-Biotech. […] Results were expressed as fold expression compared with a reference condition (2^^−∆∆ct formula).

[7] = SP (10 μM)-stimulated cells, compound 0.1 μM, 15 min, vs SP + vehicle
[8] = SP (10 μM)-stimulated cells, compound 1 μM, 15 min, vs SP + vehicle
[9] = compound alone 0.1 μM, in the absence of SP (data not shown)
[10] = SP-stimulated cells treated with OMDM188 10 μM in the presence of PEA 10 μM, vs SP + vehicle

Sequence of human CB2 receptor (P34972 whole entry): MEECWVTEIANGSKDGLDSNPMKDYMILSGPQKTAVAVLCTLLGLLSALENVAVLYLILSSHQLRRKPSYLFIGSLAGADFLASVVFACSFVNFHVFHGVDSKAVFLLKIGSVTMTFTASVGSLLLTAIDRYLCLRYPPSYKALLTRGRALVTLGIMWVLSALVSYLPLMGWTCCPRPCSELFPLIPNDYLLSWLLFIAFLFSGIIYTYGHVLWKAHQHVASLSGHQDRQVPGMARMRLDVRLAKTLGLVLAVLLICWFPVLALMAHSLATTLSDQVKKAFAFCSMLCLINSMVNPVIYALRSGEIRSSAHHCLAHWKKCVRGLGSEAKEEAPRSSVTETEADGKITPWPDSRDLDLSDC

## CCCCC/C=C\C/C=C\C/C=C\C/C=C\CCCC(=O)OC(CO)CO [2-AG, 2-arachidonoylglycerol]
Human CB2 receptor
  IC50: 590 ± 160 nM
RBL-2H3 cells [1]; [7]
  histamine release: comparable
RBL-2H3 cells [1]; [8]
  histamine release: able to reduce
RBL-2H3 cells [2]; [7]
  number of degranulated cells: comparable
RBL-2H3 cells [2]; [8]
  degranulation: able to reduce

## COc1ccc(C(=O)c2c(C)n(CCN3CCOCC3)c3cc(I)ccc23)cc1 [AM630]
RBL-2H3 cells [1]; [7]
  histamine release: comparable
RBL-2H3 cells [1]; [9]
  histamine release: No effect
RBL-2H3 cells [2]; [7]
  number of degranulated cells: comparable

## CCCC(C)(C)c1ccc2c(c1)OC(C)(C)[C@@H]1CC=C(C)C[C@@H]21 [JWH133]
RBL-2H3 cells [1]; [7]
  histamine release: inhibited the release of histamine
RBL-2H3 cells [1]; SP-stimulated cells co-treated with JWH133 0.1 μM and AM630 0.1 μM, vs SP + vehicle
  histamine release: comparable
RBL-2H3 cells [1]; [9]
  histamine release: No effect
RBL-2H3 cells [2]; [7]
  number of degranulated cells: reduced the number of SP-degranulated RBL-2H3 cells
RBL-2H3 cells [2]; SP-stimulated cells co-treated with JWH133 0.1 μM and AM630 0.1 μM, vs SP + vehicle or SP + AM630
  number of degranulated cells: comparable
RBL-2H3 cells [3]
  degranulation: no effect

## CCCCCCCCCCC[C@@H](C[C@@H]1OC(=O)[C@H]1CCCCCC)OC(=O)[C@@H](NC=O)[C@@H](C)CC [OMDM188]
RBL-2H3 cells [1]; [10]
  histamine release: comparable
RBL-2H3 cells [2]; [10]
  number of degranulated cells: comparable
RBL-2H3 cells [4]; SP-stimulated cells, compared to SP + PEA only
  decrease of endogenous levels of 2-AG: 2.5 fold
RBL-2H3 cells [4]; unstimulated cells, compared to PEA 10 μM alone
  decrease of endogenous levels of 2-AG: 2.4 fold

## substance P [SP]
RBL-2H3 cells [1]; substance alone 10 μM, 15 min, vs vehicle-treated cells
  histamine release: significantly released
RBL-2H3 cells [2]; substance alone 10 μM, 15 min, vs vehicle
  number of degranulated cells: increased the number of degranulated RBL-2H3 cells
RBL-2H3 cells [5]
  β-hexosaminidase release: significantly released
RBL-2H3 cells [4]; SP 10 μM for 15 min, vs vehicle
  endogenous levels of AEA, 2-AG, and PEA: did not change
RBL-2H3 cells [6]
  mRNA expression of Cnr2, Napepld, Naaa, Daglb, Faah and Mgl: no statistically significant change
